The values below come from patent publication US20070071746A1, “C/CLP antagonists and methods of use thereof” (MEDIMMUNE, INC., priority 2005, published 2007).

For one experiment, the system named is Jurkat T cells. In words: Galectin-3 induced apoptosis in Jurkat T cells. Format: cell-based, human.
The target in experiment [1] is T1, human AMCase / human galectin 4 (Homo sapiens, UniProt P56470).
T1 construct: 6xHis (C); made in house; host or cells: HEK293 (AMCase)
T1 sequence (P56470 1-323): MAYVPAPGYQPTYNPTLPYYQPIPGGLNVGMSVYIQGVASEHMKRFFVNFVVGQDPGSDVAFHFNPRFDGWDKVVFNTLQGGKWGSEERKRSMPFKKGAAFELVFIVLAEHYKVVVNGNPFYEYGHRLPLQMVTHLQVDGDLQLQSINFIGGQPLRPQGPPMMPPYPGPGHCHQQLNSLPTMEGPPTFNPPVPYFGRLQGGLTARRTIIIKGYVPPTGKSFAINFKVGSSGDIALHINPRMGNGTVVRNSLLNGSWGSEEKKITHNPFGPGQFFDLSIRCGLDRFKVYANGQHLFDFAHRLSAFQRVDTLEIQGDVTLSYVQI
In words: C/CLP-Galectin Interaction ELISA. Format: binding. As for the experimental part:
(§1) C/CLP-Galectin Interaction ELISA: Galectin is immobilized on a microtiter plate in DPBS over night at 2-8° C. The plates are then washed with DPBS, 0.1% Tween 20 and blocked for 1 hour at room temperature. Serial dilutions of biotin labeled AMCase are added to each well and incubated for ˜1 hour at room temperature followed by HRP labeled streptavidin. Horseradish peroxydase activity is detected with TMB substrate (KPL, MD) and the reaction is quenched with 1% H2SO4. The absorbance is read at 450 nm.

Experiment [2] can be described thus: 4-Mu-Chitotrioside assay, activity of recombinant AMCase proteins. Format: biochemical. The conditions noted are these: 4-Mu-Chitotrioside assay (soluble substrate). As for the experimental part:
Activity Assays Used: Chitinase activity was assayed using two different but commonly used assays. One assay (4-Mu-Chitotrioside assay) utilized 4-methylumbelliferyl-β-D-N,N′,N″-triacetylchitotrise as a substrate (see, e.g., Hollak et al., 1994, J. Clin. Invest. 93: 1288-92). The other (chitin-azure assay) utilized chitin azure as a substrate (see, e.g., Thompson et al., (2001) Appl Environ Microbiol. 67:4001-4008).

In a further experiment the test system is Jurkat cells. In words: Galectin Induced Calcium Flux. In kind it is cell-based, human. The conditions noted are these: for inhibition of galectin-3 induced calcium flux: 200 μg/ml, versus 100 μg/ml; for calcium flux in Jurkat cells: galectin-3 40 μg/ml. As for the experimental part: Galectin Induced Calcium Flux: Jurkat cells were labeled with Fluo-4AM and Fura-Red. galectin-3 (40 μg/ml) was added to the cells and Ca flux was analyzed as FL1/FL3. Analysis was performed for 5 minutes. For interaction analysis gal-3 (40μg/ml) is pre-incubated with huAMCase (100-200 μg/ml) or huChTrase (100-200 μg/ml) for 15 mins at RT prior to addition.
(Calcium flux is commonly read through the fluorescence of an indicator in the cells.)

Another experiment addresses galectin 1 (Homo sapiens, UniProt P09382). In words: C/CLP-Galectin Interaction ELISA. In kind it is binding. As for the experimental part: as §1
A further experiment addresses galectin 7 (Homo sapiens, UniProt P47929). In words: C/CLP-Galectin Interaction ELISA. In kind it is binding. As for the experimental part: as §1
(In an ELISA, binding on a coated surface is turned into a signal by an enzyme label.)

The next experiment concerns the target T2, galectin 8 (Homo sapiens, UniProt O00214).
T2 sequence (O00214 1-317): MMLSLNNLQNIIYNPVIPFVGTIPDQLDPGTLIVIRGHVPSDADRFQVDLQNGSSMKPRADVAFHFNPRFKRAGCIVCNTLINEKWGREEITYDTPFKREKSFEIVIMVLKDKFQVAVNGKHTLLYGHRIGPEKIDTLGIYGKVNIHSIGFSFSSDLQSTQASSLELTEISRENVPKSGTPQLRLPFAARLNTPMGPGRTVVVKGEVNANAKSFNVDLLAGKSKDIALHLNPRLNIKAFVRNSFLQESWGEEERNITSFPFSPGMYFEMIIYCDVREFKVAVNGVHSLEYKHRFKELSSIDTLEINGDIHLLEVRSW
In words: C/CLP-Galectin Interaction ELISA. Format: binding. As for the experimental part:
as §1

The subject of experiment [3] is human AMCase / human galectin 3. In words: C/CLP-Galectin Interaction ELISA. In kind it is binding. The conditions noted are these: listed as full length human AMCase. As for the experimental part: as §1
In the next experiment the target is T3, galectin 2 (Homo sapiens, UniProt P05162).
T3 sequence (P05162 1-132): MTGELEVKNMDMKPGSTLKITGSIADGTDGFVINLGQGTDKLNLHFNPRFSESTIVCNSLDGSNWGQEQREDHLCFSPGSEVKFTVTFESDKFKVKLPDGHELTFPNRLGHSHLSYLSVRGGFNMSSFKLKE
In words: C/CLP-Galectin Interaction ELISA. Format: binding. As for the experimental part:
as §1

Experiment [4] relates to memory T cells isolated from human blood. In words: Galectin-3 induced apoptosis in memory T cells. Format: cell-based.
The next experiment deals with peritoneal macrophages. In words: Cytokine induction assay with recombinant mYKL-40. In kind it is cell-based, mouse. To be noted: for secretion of IL-6 / secretion of KC: increasing amounts of recombinant mYKL-40. As for the experimental part: Isolation of peritoneal macrophaaes: 4-6 week old Balb/c mice were injected i.p. with 1 ml of fluid thioglyclollate medium (Becton, Dickinson and Company, Sparks, Md.). 4 days later peritoneal macrophages were harvested by lavage (ice-cold PBS w/o Ca, Mg, 10 ml/mouse). Cells were washed with PBS twice and resuspended in 10% FBS/RPMI 1640 medium (Glutamax, 25 mM Hepes, 1×antibiotic-antimycotic (Invitrogen, Grand Island, N.Y.) at 2.5×10^6 cells/ml. Cells were plated in 96 well TC plates (100 μl/well). After overnight incubation at 37° C. nonadherent cells were removed by washing with serum free RPMI 1640. 100 μl/well of 10% FBS/RPMI 1640 were added and cells were cultured for 72 hr.
Cytokine Induction Assays: isolated peritoneal macrophages (described above) were washed with PBS, proteins and antibodies, concentrated supernatants, were added in 2% FBS/RPMI 1640, 100 μl/well. After 18 hr incubation supernatants were collected and cytokine concentrations were measured using mouse cytokine multiplex kit (Upstate, Lake Placid, N.Y.) on Luminex 100.

For experiment [5], the target named is T4, mouse AMCase / mouse galectin-3 (Mus musculus, UniProt Q91XA9).
T4 construct: 6xHis (C); made in house; host or cells: HEK293 (FreeStyle 293), secreted and purified on nickel NTA
In words: C/CLP-Galectin Interaction ELISA. In kind it is binding. To be noted: data not shown. As for the experimental part:
as §1

The target in experiment [6] is T5, mouse AMCase / mouse galectin-4 (Mus musculus, UniProt Q91XA9).
T5 construct: 6xHis (C); made in house; host or cells: HEK293 (FreeStyle 293), secreted and purified on nickel NTA
In words: C/CLP-Galectin Interaction ELISA. In kind it is binding. To be noted: data not shown. As for the experimental part:
as §1

Setting [7] is: listed as recombinant mouseYKL-40.

“Also recorded” adds a separate entry of the source.

galectin 7, sequence (P47929 whole entry): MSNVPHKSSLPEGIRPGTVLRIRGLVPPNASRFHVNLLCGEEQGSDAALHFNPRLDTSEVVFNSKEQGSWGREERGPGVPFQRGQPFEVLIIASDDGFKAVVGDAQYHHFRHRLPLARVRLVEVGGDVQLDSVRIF
galectin 1, sequence (P09382 2-135 limits assumed): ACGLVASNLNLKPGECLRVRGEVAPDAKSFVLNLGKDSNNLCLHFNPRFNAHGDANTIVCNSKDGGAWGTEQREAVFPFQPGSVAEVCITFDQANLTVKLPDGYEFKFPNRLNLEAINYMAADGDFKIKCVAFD
T5 sequence (Q91XA9 22-473): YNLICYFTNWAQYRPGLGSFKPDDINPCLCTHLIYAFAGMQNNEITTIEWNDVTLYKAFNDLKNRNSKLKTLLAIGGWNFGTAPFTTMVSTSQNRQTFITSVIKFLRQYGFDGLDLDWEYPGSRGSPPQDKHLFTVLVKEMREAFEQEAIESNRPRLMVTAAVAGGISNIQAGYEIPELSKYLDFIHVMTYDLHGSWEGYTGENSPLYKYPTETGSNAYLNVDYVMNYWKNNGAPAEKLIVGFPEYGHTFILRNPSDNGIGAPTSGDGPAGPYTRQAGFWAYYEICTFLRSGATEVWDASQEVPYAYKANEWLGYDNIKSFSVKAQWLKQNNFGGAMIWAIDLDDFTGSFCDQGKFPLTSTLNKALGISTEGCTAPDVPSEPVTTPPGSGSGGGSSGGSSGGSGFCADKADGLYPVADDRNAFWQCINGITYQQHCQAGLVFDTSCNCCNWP
T4 sequence (Q91XA9 22-473): as above

`OC[C@H]1O[C@@H](O[C@H]2[C@H](O)[C@@H](O)C(O)O[C@@H]2CO)[C@H](O)[C@@H](O)[C@H]1O` (some centres unmarked) [lactose, reference compound]: in the experiment with Jurkat T cells (addition of lactose), the “effect on galectin-3 induced apoptosis of Jurkat T cells” value is “abolished; also recorded: reduced the levels of apoptosis seen to nearly background levels”. For the same molecule, the “inhibition of binding of Human AMCase to Galectin 4” value in experiment [1] is on record as “inhibited”.
With “AMCase-TR: recombinant AMCase protein lacking the CBD”, the “activity of recombinant AMCase proteins” value in [2] is recorded as “high activity”; in [2] (listed as truncated form), “active”.
Regarding “AMCase: recombinant human acidic mammalian chitinase”, in the experiment on Jurkat cells, the “inhibition of galectin-3 mediated calcium flux” value is “inhibited” and the “inhibition of galectin-3 induced calcium flux” value is recorded as “further inhibition”. In the experiment with galectin 1, the “binding of AMCase to galectin 1” value is “not”. Moreover, in the experiment with galectin 7, the “binding of AMCase to galectin 7” value is recorded as “not”. Further, the “binding of AMCase to galectin 8” value with galectin 8 was “not”. Moreover, the “binding of AMCase to galectin 3” value in [3] is recorded as “confirmed; also recorded: binds”. For the same molecule, the “binding of AMCase to galectin 4” value in [1] (listed as full length human AMCase) is on record as “confirmed; also recorded: binds”. Also, the “binding of AMCase to galectin 2” value with galectin 2 is “not”. In addition, the “inhibition of galectin-3 induced apoptosis of memory T cells” value in experiment [4] (10 μg galectin-3, 50 μg or more of AMCase) is given as “inhibited; also recorded: significant inhibition”.
As to Cht: recombinant human chitotriosidase, in the experiment on Jurkat cells, the “inhibition of galectin-3 mediated calcium flux” value is given as “inhibited” and the “inhibition of galectin-3 induced calcium flux” value is on record as “not”.
Regarding “D136A: AMCase full length protein containing the D136A mutation [Antibody D136A]”, in experiment [2], the “activity of recombinant AMCase proteins” value is “no activity; also recorded: completely abolished activity”.
Consider “full length AMCase: recombinant full length AMCase protein”, for which the “activity of recombinant AMCase proteins” value in [2] was “high activity; also recorded: active”.
As to “mYKL-40: recombinant mouse YKL-40/BRP-39”, in the experiment on peritoneal macrophages, the “induction of IL-10” value was “induced”, the “induction of RANTES” value was “induced”, the “induction of TNF-α” value was “induced” and the “secretion of IL-6” value was “increase”. For the same molecule, in the experiment with peritoneal macrophages, the “secretion of KC” value is “increase”. Further, in the experiment on peritoneal macrophages (setting [7]), the “secretion of IL-6” value is listed as “dose sensitive increase” and the “secretion of KC” value is “dose sensitive increase”.
As to “mouse AMCase: recombinant mouse acidic mammalian chitinase”, the “binding of mouse AMCase to mouse galectin-3” value in [5] is recorded as “bind”. For the same molecule, the “binding of mouse AMCase to mouse galectin-4” value in experiment [6] is given as “bind”.
Turning to rhuGal-3: recombinant human Galectin 3, the “calcium flux in Jurkat cells” value is listed as “results in calcium flux” with Jurkat cells (listed as Galectin) and “mediate calcium flux” in the experiment on Jurkat cells (listed as Galectin-3). Further, the “apoptosis of Jurkat T cells” value in the experiment with Jurkat T cells (1 μg rhuGal-3) is recorded as “Little to no apoptosis”; in the experiment with Jurkat T cells (5, 10 and 30 μg rhuGal-3) it was “increased apoptosis”; with Jurkat T cells (5, 10 and 30 μg rhuGal-3, listed as Galectin-3), “induce apoptosis”. In addition, the “apoptosis of memory T cells” value in [4] (galectin-3 alone) is “induced apoptosis”.
